According to PubChem BioAssay AID248 (DTP/NCI, 2004):
Values joined by “and” are separate entries in the source; they are usually repeats but may differ in a detail not shown here. Equal entries are not always repeated. Toxic doses and inconclusive results are not listed. Cut-off read from the data, not from the text of the source: active = T/C of 150% or more; inactive = T/C below 125%.

Tested on: L1210 leukemia ip in BDF1 mice, survival T/C
Assay: NCI In Vivo Anticancer Drug Screen. Data for tumor model L1210 Leukemia (intraperitoneal) in B6D2F1 (BDF1) mice
Settings: endpoint: mean survival time, higher = longer survival
Summary of the method: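 Each compound was tested against a transplantable tumor grown in mice. The endpoint was survival, with treated animals benchmarked against vehicle controls as a simple ratio.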

[1] = dose: 100.0 mg/kg/injection, schedule: Q01DX001 (ip), vehicle: other
[2] = dose: 200.0 mg/kg/injection, schedule: Q01DX001 (ip), vehicle: other
[3] = dose: 400.0 mg/kg/injection, schedule: Q01DX001 (ip), vehicle: other
[4] = dose: 100.0 mg/kg/injection, schedule: Q04DX003 (ip), vehicle: saline with Tween-80
[5] = dose: 200.0 mg/kg/injection, schedule: Q04DX003 (ip), vehicle: saline with Tween-80
[6] = dose: 400.0 mg/kg/injection, schedule: Q04DX003 (ip), vehicle: saline with Tween-80
[7] = dose: 100.0 mg/kg/injection, schedule: Q01DX009 (ip), vehicle: Klucel (hydroxypropylcellulose) (HPC)
[8] = dose: 200.0 mg/kg/injection, schedule: Q01DX009 (ip), vehicle: Klucel (hydroxypropylcellulose) (HPC)
[9] = dose: 400.0 mg/kg/injection, schedule: Q01DX009 (ip), vehicle: Klucel (hydroxypropylcellulose) (HPC)
[10] = dose: 100.0 mg/kg/injection, schedule: Q01DX001 (ip), vehicle: saline
[11] = dose: 200.0 mg/kg/injection, schedule: Q01DX001 (ip), vehicle: saline
[12] = dose: 400.0 mg/kg/injection, schedule: Q01DX001 (ip), vehicle: saline
[13] = dose: 100.0 mg/kg/injection, schedule: Q01DX009 (ip), vehicle: saline with Tween-80
[14] = dose: 200.0 mg/kg/injection, schedule: Q01DX009 (ip), vehicle: saline with Tween-80
[15] = dose: 400.0 mg/kg/injection, schedule: Q01DX009 (ip), vehicle: saline with Tween-80

Measured: T/C

O=[N+]([O-])c1cccc(OCCCCBr)c1
inactive: dose: 100.0 mg/kg/injection, schedule: Q04DX003 (ip), vehicle: other 97 % of control | dose: 200.0 mg/kg/injection, schedule: Q04DX003 (ip), vehicle: other 110 % of control | dose: 400.0 mg/kg/injection, schedule: Q04DX003 (ip), vehicle: other 102 % of control

COC(=O)C(O)(C#CC(C)C)c1ccccc1 (configuration not stated)
inactive: [1] 107 % of control | [2] 100 % of control | [3] 94 % of control

O=C(O)CC1(CC(=O)O)C(=O)N(c2ccccc2)c2ccccc21
inactive: dose: 100.0 mg/kg/injection, schedule: Q01DX001 (ip), vehicle: saline with Tween-80 95 % of control | dose: 200.0 mg/kg/injection, schedule: Q01DX001 (ip), vehicle: saline with Tween-80 90 % of control | dose: 400.0 mg/kg/injection, schedule: Q01DX001 (ip), vehicle: saline with Tween-80 97 % of control

Cc1c(N)nc(Br)c2ccccc12
inactive: [4] 105 % of control | [5] 101 % of control | [6] 110 % of control

Cc1ccc(S(=O)(=O)OCCOc2ccc(C(C)(C)CC(C)(C)C)cc2)cc1
inactive: [7] 100 % of control | [8] 101 % of control | [9] 100 % of control

C/C=C1/C[C@@H](C)[C@@](C)(O)C(=O)OCC2=CCN3CC[C@@H](OC1=O)[C@@H]23
inactive: dose: 10.0 mg/kg/injection, schedule: Q01DX015 (ip), vehicle: carboxymethylcellulose (CMC) 93 % of control | dose: 20.0 mg/kg/injection, schedule: Q01DX015 (ip), vehicle: carboxymethylcellulose (CMC) 96 % of control | dose: 30.0 mg/kg/injection, schedule: Q01DX015 (ip), vehicle: carboxymethylcellulose (CMC) 98 % of control | dose: 100.0 mg/kg/injection, schedule: Q01DX001 (ip), vehicle: carboxymethylcellulose (CMC) 105 % of control

CCOC(=O)NC1CCCCC1
inactive: dose: 100.0 mg/kg/injection, schedule: Q01DX001 (ip), vehicle: gum acacia 97 % of control | dose: 200.0 mg/kg/injection, schedule: Q01DX001 (ip), vehicle: gum acacia 97 % of control | dose: 400.0 mg/kg/injection, schedule: Q01DX001 (ip), vehicle: gum acacia 105 % of control

CCCCCSB(SCCCCC)c1ccccc1
inactive: [10] 89 % of control | [11] 89 % of control | [12] 92 % of control

ClC(Cl)C1OCCOCCO1
inactive: dose: 100.0 mg/kg/injection, schedule: Q04DX002 (ip), vehicle: Klucel (hydroxypropylcellulose) (HPC) 97 % of control | dose: 200.0 mg/kg/injection, schedule: Q04DX002 (ip), vehicle: Klucel (hydroxypropylcellulose) (HPC) 100 % of control | dose: 400.0 mg/kg/injection, schedule: Q04DX002 (ip), vehicle: Klucel (hydroxypropylcellulose) (HPC) 97 % of control

CC(=O)Nc1cc2[nH]cnc2c(Br)n1
inactive: dose: 25.0 mg/kg/injection, schedule: Q01DX005 (ip), vehicle: saline 100 % of control | dose: 50.0 mg/kg/injection, schedule: Q01DX005 (ip), vehicle: saline 105 % of control | dose: 100.0 mg/kg/injection, schedule: Q01DX005 (ip), vehicle: saline 110 % of control

COc1cc(N(CCCl)CCCl)ccc1NC(=O)c1ccccc1
inactive: [1] 98 % of control | [2] 98 % of control | [3] 109 % of control

CCCCN(CCCC)C(=N)c1c(C)cc(C)cc1C
inactive: dose: 2.5 mg/kg/injection, schedule: Q01DX001 (ip), vehicle: saline 101 % of control | dose: 5.0 mg/kg/injection, schedule: Q01DX001 (ip), vehicle: saline 105 % of control and 106 % of control and 108 % of control | dose: 7.0 mg/kg/injection, schedule: Q01DX001 (ip), vehicle: saline 94 % of control and 104 % of control | dose: 10.0 mg/kg/injection, schedule: Q01DX001 (ip), vehicle: saline 98 % of control and 101 % of control and 110 % of control | dose: 15.0 mg/kg/injection, schedule: Q01DX001 (ip), vehicle: saline 102 % of control and 104 % of control

CCN1CCC2CN(C(=O)Nc3ccccc3)CCN2C1=O (configuration not stated)
inactive: [4] 98 % of control | [5] 90 % of control | [6] 87 % of control

Cc1cc(OC(=O)Nc2cc(C(F)(F)F)ccc2Cl)cc(C)c1Cl
inactive: [7] 91 % of control | [8] 104 % of control | [9] 93 % of control

CC(C)=NNC(=O)Nc1cccc(C)c1C
inactive: [7] 90 % of control | [8] 91 % of control

Clc1ccc(CSc2ncc(Br)c(Cl)n2)cc1
inactive: dose: 100.0 mg/kg/injection, schedule: Q01DX Z (ip), vehicle: methylcellulose (MC) 90 % of control | dose: 200.0 mg/kg/injection, schedule: Q01DX Z (ip), vehicle: methylcellulose (MC) 99 % of control

COc1ccc(C=Nc2ccccc2N=Cc2ccc(OC)c(OC)c2)cc1OC
inactive: [13] 106 % of control | [4] 96 % of control | [14] 97 % of control | [5] 93 % of control | [15] 106 % of control | [6] 93 % of control

COc1ccc(N2C(=O)CC(Sc3ccccc3N)C2=O)cc1 (configuration not stated)
inactive: dose: 100.0 mg/kg/injection, schedule: Q01DX009 (ip), vehicle: other 102 % of control | dose: 100.0 mg/kg/injection, schedule: Q04DX003 (ip), vehicle: saline 94 % of control | dose: 200.0 mg/kg/injection, schedule: Q01DX009 (ip), vehicle: other 91 % of control | dose: 200.0 mg/kg/injection, schedule: Q04DX003 (ip), vehicle: saline 90 % of control | dose: 400.0 mg/kg/injection, schedule: Q01DX009 (ip), vehicle: other 91 % of control | dose: 400.0 mg/kg/injection, schedule: Q04DX003 (ip), vehicle: saline 90 % of control

CCOc1ccc(Br)cc1/C=N/NS(=O)(=O)c1ccc(C)cc1
inactive: [13] 94 % of control | [4] 97 % of control | [14] 97 % of control | [5] 103 % of control | [15] 101 % of control | [6] 103 % of control

CCOC(=O)c1ccc(N=NN(C)C2CCCCC2)cc1
inactive: dose: 100.0 mg/kg/injection, schedule: Q01DX001 (sc), vehicle: olive oil, sesame oil, peanut oil 102 % of control | dose: 100.0 mg/kg/injection, schedule: Q01DX009 (sc), vehicle: olive oil, sesame oil, peanut oil 104 % of control | dose: 100.0 mg/kg/injection, schedule: Q04DX003 (sc), vehicle: olive oil, sesame oil, peanut oil 102 % of control | dose: 200.0 mg/kg/injection, schedule: Q01DX001 (sc), vehicle: olive oil, sesame oil, peanut oil 102 % of control | dose: 200.0 mg/kg/injection, schedule: Q01DX009 (sc), vehicle: olive oil, sesame oil, peanut oil 116 % of control | dose: 200.0 mg/kg/injection, schedule: Q04DX003 (sc), vehicle: olive oil, sesame oil, peanut oil 103 % of control | dose: 400.0 mg/kg/injection, schedule: Q01DX001 (sc), vehicle: olive oil, sesame oil, peanut oil 98 % of control | dose: 400.0 mg/kg/injection, schedule: Q01DX009 (sc), vehicle: olive oil, sesame oil, peanut oil 104 % of control | dose: 400.0 mg/kg/injection, schedule: Q04DX003 (sc), vehicle: olive oil, sesame oil, peanut oil 100 % of control

O=c1c([N+](=O)[O-])c[nH]c2cc(Cl)ccc12
inactive: dose: 50.0 mg/kg/injection, schedule: Q01DX001 (ip), vehicle: saline 92 % of control | [10] 101 % of control | [11] 103 % of control | [12] 97 % of control

C(=C\[P+](Cc1ccccc1)(c1ccccc1)c1ccccc1)/c1ccccc1
inactive: dose: 12.5 mg/kg/injection, schedule: Q04DX003 (ip), vehicle: saline with Tween-80 100 % of control | dose: 25.0 mg/kg/injection, schedule: Q04DX003 (ip), vehicle: saline with Tween-80 92 % of control
